Experimental data: patent US9724312B2, “Agent for the prevention, improvement or treatment of retinal disease” (ROHTO PHARMACEUTICAL CO., LTD., priority 2012, dated 2017)

Tests used:
PC12 = assay: Protective effect against ischemic cell death induced by hypoxia and low glucose (Cell Titer-Glo cell viability); format: cell-based, rat; settings: 30 μM, 2 h pre-incubation, then low glucose/zero percent O2 8 h, FIG. 1, n=10, Tukey-Kramer
Excerpt: The progress of visual impairment in glaucoma is associated with retinal ganglion cell (RGC) death due to blood flow failure occurring near the optic nerve (Folia Pharmacol. Jpn. 128, 255-258 (2006)). With the use of PC12, which is a typical neural cell line established from rat adrenal […] pheochromocytoma and used also as a model cell for the functional evaluation of RGC (J Neurosci Res. 2000 May 15; 60(4): 495-503), the cytoprotective effect of GGA against ischemic cell death induced by hypoxia and low glucose was evaluated.
Test samples were prepared as follows. The test substances were four types of GGAs that contain the all-trans form and the 5Z-mono-cis form at a weight ratio of 10:0, 8:2, 6:4, and 0:10, respectively. […]
After 8 hours of incubation, 100 μL of an equivalent mixture of a cell viability detection reagent Cell Titer-Glo (Promega) and PBS was added to each well and the luminescence produced by the reaction with ATP in living cells was measured with a luminometer (GloMax; Promega). The cell viability was calculated from the measured luminescence by the following formula and the cytoprotective effect of GGA against oxidative stress by hydrogen peroxide was examined. Cell viability(%)=100×[(luminescence of base- or GGA-treated group)/(luminescence of non-treated group)]

[1] = tested on: IL-8 production by TNF-α in ARPE-19; assay: Inhibitory effect on IL-8 production by TNF-α from retinal pigment epithelial cells; format: cell-based, human; settings: all-trans form content 50 μM, 16 h, then TNF-α 4 h, FIG. 5, n=3
Excerpt: Age-related macular degeneration is known to involve the accumulation of drusen under the retinal pigment epithelium. Drusen attract macrophages and macrophages secrete TNF-α. TNF-α acts on the retinal pigment epithelium and its peripheral tissue, and the cells subsequently produce a variety of cytokines and cause inflammation (Mol Vis. 2008 14: 2292-303). Atypical cytokine that is involved in neutrophil migration and spreads inflammation is interleukin-8 (IL-8). In this experiment, the inhibitory effect of GGA on IL-8 production by TNF-α was examined using a human-derived retinal pigment epithelial cell line, ARPE-19. […]
After 4 hours of incubation, 150 μL of the cell culture supernatant was collected and stored at −80° C. […] Then, 100 μL of an equivalent mixture of a cell viability detection reagent Cell Titer-Glo and PBS was added to each well and the luminescence produced by the reaction with ATP in living cells was measured with a luminometer. From the measured luminescence, the cell viability was calculated by the following formula. Cell viability(%)=100×[(luminescence of GGA-treated group)/(luminescence of base-treated group)]
The stored cell culture supernatant was allowed to warm to room temperature, and the IL-8 concentration was quantified with Human CXCL8/IL-8 Quantikine ELISA Kit (R&D Systems). […]

CC(=O)CC/C=C(\C)CC/C=C(\C)CC/C=C(\C)CCC=C(C)C [all-trans form, (5E,9E,13E)-6,10,14,18-tetramethyl-5,9,13,17-nonadecatetrae n-2-one] was tested, and the “cytoprotective effect compared with GGA 6:4” value (PC12) was “significantly higher cytoprotective effects” and the “inhibitory effect on IL-8 production compared with GGA 6:4” value [1] was “significant inhibitory effect on IL-8 production”.
